Source: the NIST ThermoML archive (doi:10.1007/s10765-008-0444-7)

Tests used:
[1] = xn = mol fraction of the nth substance listed; conditions: 101 kPa, Liquid; for viscosity: Capillary tube (Ostwald / Ubbelohde) method; for mass density: Pycnometric method
[2] = 101.3 kPa, Liquid; for viscosity: Capillary tube (Ostwald / Ubbelohde) method; for mass density: Pycnometric method

Clc1ccccc1 [chlorobenzene] + CO
[1]
Conditions | mass density, 293 K [kg/m3] | mass density, 303 K [kg/m3] | mass density, 313 K [kg/m3] | viscosity, 293 K [mPa·s] | viscosity, 303 K [mPa·s] | viscosity, 313 K [mPa·s]
x2 = 0 | 1105.8 | 1095 | 1082 | 0.8432 | 0.721 | 0.6247
x2 = 0.2808 | 1066.5 | 1056 | 1044 | 0.8312 | 0.7121 | 0.6157
x2 = 0.4676 | 1029.2 | 1019 | 1007 | 0.8209 | 0.6924 | 0.6041
x2 = 0.601 | 993.9 | 983.7 | 972.5 | 0.8018 | 0.6821 | 0.5832
x2 = 0.7009 | 960.5 | 950.4 | 939.4 | 0.7699 | 0.6572 | 0.5569
x2 = 0.7783 | 928.8 | 918.9 | 908.1 | 0.7256 | 0.6093 | 0.5296
x2 = 0.8405 | 898.5 | 888.8 | 878.3 | 0.692 | 0.5828 | 0.51
x2 = 0.8913 | 869.7 | 860.1 | 849.9 | 0.6766 | 0.5672 | 0.4961
x2 = 0.9335 | 842.3 | 832.9 | 822.9 | 0.6424 | 0.5401 | 0.4701
x2 = 0.9693 | 816.2 | 806.8 | 797.1 | 0.6194 | 0.528 | 0.4591

CO [methanol]
[2]
Conditions | mass density [kg/m3] | viscosity [mPa·s]
293 K | 791.1 | 0.591
303 K | 781.9 | 0.518
313 K | 772.4 | 0.45

CO [methanol] + Brc1ccccc1
[1], x1 = 1
Conditions | mass density [kg/m3] | viscosity [mPa·s]
293 K | 791.1 | 0.591
303 K | 781.9 | 0.518
313 K | 772.4 | 0.45
